Results from patent US5981498A, “Agent for improving the blood circulation” (Kabushiki Kaisha Hayashibara Seibutsu Kagaku Kenkyujo, priority 1997, dated 1999).

Tests used:
[1] = test system: lumbago or chronic stiffness in the shoulder; experiment: Clinical test, cataplasm (Table 1); type: in vivo, human; settings: versus sucrose; Tables 1 and 2
Protocol: A clinical paramedic conducted the experiment and, after the experiment, asked the therapeutic effect and the side effects of the volunteers. The therapeutic effect was evaluated with four ranks of "very effective", "effective", "unchanged", and "worsened", and the effectivity (%) was calculated as a percentage of the number of volunteers, who answered "very effective" and "effective", to the total number of volunteers.

[2] = test system: blood flow, dorsum cucullaris of volunteer with stiffness in both shoulders; experiment: Plethysmogram / volume pulse wave (PTG), improvement of blood circulation; type: in vivo, human; settings: similar experiment on vitamin P, cataplasm, MV and PTG
Text: MV is an apparatus for recording micro-vibration of ballistic components accompanied by muscular fibers in vivo and heartbeat by converting the micro-vibration into an electrodynamic phenomenon where peaks are detected at a high-frequency region in patients with muscular rigidity such as stiffness in the shoulder, and the peaks are shifted to a lower-frequency region as the muscular rigidity is relived. PTG is an apparatus for detecting blood flow as a vascular change in pressure and for expressing change in volume as a wave-height level; When the wave-height level is increased as the increment of blood flow in a stiff part in the shoulder, meaning that blood circulation is improved.
The patient was monitored for both MV and PTG by a polygraph for 20 min, and the data were recorded by a data recorder.
On the next morning, the cataplasm was removed from the volunteer while they were allowed to lay on the bed, followed by attaching pickups to the same part as of the cataplasm for measuring and recording MV and PTG for 30 min and for two hours, respectively, similarly as above.

Molecule	effect of trehalose on the muscular-rigidity-relieving activity of glycosyl vitamin P [1]	effect as compared with control [2]
OC[C@H]1O[C@H](O[C@H]2O[C@H](CO)[C@@H](O)[C@H](O)[C@H]2O)[C@H](O)[C@@H](O)[C@@H]1O [trehalose]	significantly augmented	–
vitamin P	–	substantially showed no remarkable effect
